These are literature values, as cited in patent publication US12721837B2, “Stable pharmaceutical compositions of clonidine” (AZURITY PHARMACEUTICALS, INC., priority 2021, dated 2026).

For series [1] the following is noted: after oral administration.

Regarding `Clc1cccc(Cl)c1N=C1NCCN1` [Clonidine, N-(2,6-dichlorophenyl)-4,5-dihydro-1H-imidazol-2-amine], the Solubility in water result is given as “freely soluble”. In addition, the “Absorption from the gastrointestinal tract” value in series [1] was “almost completely absorbed”.
